# Experimental data taken from patent US6472152B1 (priority 1998, dated 2002).
# Where “and” joins values, the source holds several entries; their conditions need not be identical. Equal values may be shown once. Read-outs that look alike come from different tables or passages of the source.
# Tests used:
# [1] = system: Salmonella typhimurium TA104 pr1
# [2] = system: Salmonella typhimurium TA104 recN2-4
# [3] = system: TA104 recN2-4 and TA104 pr1 strain
# SOS signal = conditions: normally; cited from earlier work
# [4] = system: Salmonella typhimurium TA104 recN2-4; conditions: van der Lelie et al, 1997; cited from earlier work
# [5] = without S9-mix, maximal S/N, 60-240 min
# [6] = without S9-mix, ratio of maximal S/N values
# [7] = without S9-mix, ratio of mean S/N values
# [8] = without S9-mix, within the dose-range tested
molecule,measurement,setting,value
"O=[N+]([O-])c1ccc2c(c1)Cc1cc([N+](=O)[O-])ccc1-2 [2,7Dinitrofluoreen]",Toxic (pri),[1],−
same,concentration at which S/R > 2 (recN2 − 4),[2],0.62 ppm
same,concentration at which S/R's of rec/pri >1.5 MAX,[3],0.62 ppm
same,concentration at which S/R's of rec/pri >1.5 MEAN,[3],0.62 ppm
Nc1ccc2c(c1)Cc1ccccc1-2 [2AF],concentration at which S/R's of rec/pri >1.5 MAX,[3],0.2 ppm
same,concentration at which S/R's of rec/pri >1.5 MEAN,[3],0.2 ppm
O=[N+]([O-])c1ccc2c3c(cccc13)-c1ccccc1-2 [3-Nitrofluoranthene],concentration at which S/R > 2 (recN2 − 4),[2]; S9-mix +25 μl/ml,15.7 ppb
same,concentration at which S/R > 2 (recN2 − 4),[2]; [5],15.7 ppb
same,concentration at which S/R > 2 (recN2 − 4),"[2]; without S9-mix, maximal S/N, 60-240 min, listed as 3Nitrofluoranthene",0.032 ppm
same,concentration at which S/R's of rec/pri >1.5 MAX,[3]; S9-mix +25 μl/ml,31.2 ppb
same,concentration at which S/R's of rec/pri >1.5 MEAN,[3]; S9-mix +25 μl/ml,15.7 ppb
same,concentration at which S/R's of rec/pri >1.5 MAX,[3]; [6],31.3 ppb
same,concentration at which S/R's of rec/pri >1.5 MAX,"[3]; without S9-mix, ratio of maximal S/N values, listed as 3Nitrofluoranthene",0.064 ppm
same,concentration at which S/R's of rec/pri >1.5 MEAN,[3]; [7],15.7 ppb
same,concentration at which S/R's of rec/pri >1.5 MEAN,"[3]; without S9-mix, ratio of mean S/N values, listed as 3Nitrofluoranthene",0.032 ppm
Nc1ccc([N+](=O)[O-])cc1N [4Nitro-o-Phenylenediamine],concentration at which S/R > 2 (recN2 − 4),[2]; S9-mix +25 μl/ml,12.5 ppm
same,concentration at which S/R > 2 (recN2 − 4),[2]; [5],3.1 ppm
same,concentration at which S/R's of rec/pri >1.5 MAX,[3]; S9-mix +25 μl/ml,12.5 ppm
same,concentration at which S/R's of rec/pri >1.5 MEAN,[3]; S9-mix +25 μl/ml,12.5 ppm
same,concentration at which S/R's of rec/pri >1.5 MAX,[3]; [6],3.1 ppm
same,concentration at which S/R's of rec/pri >1.5 MEAN,[3]; [7],1.57 ppm
COC(=O)N/N=C/c1c[n+]([O-])c2ccccc2[n+]1[O-] [Carbadox],concentration at which S/R > 2 (recN2 − 4),[2]; [5],0.08 ppm
same,concentration at which S/R's of rec/pri >1.5 MAX,[3]; [6],0.08 ppm
same,concentration at which S/R's of rec/pri >1.5 MEAN,[3]; [7],0.04 ppm
c1ccc2c(c1)ccc1c3ccccc3ccc21 [Chrysene],concentration at which S/R's of rec/pri >1.5 MAX,[3]; S9-mix +100 μl/ml,10 ppm
same,concentration at which S/R's of rec/pri >1.5 MEAN,[3]; S9-mix +100 μl/ml,5 ppm
CCOS(C)(=O)=O [EMS],concentration at which S/R > 2 (recN2 − 4),[2]; [5],256 ppm
same,concentration at which S/R's of rec/pri >1.5 MAX,[3]; [6],256 ppm
same,concentration at which S/R's of rec/pri >1.5 MEAN,[3]; [7],256 ppm
ClCC1CO1 (centres unmarked) [Epichlorohydrine],S/N values in the pr1 strain,[1],~1
same,toxicity evaluation,[1],not toxic in the given dose-range
same,S/N values in the recN2-4 strain,[2],> 2
same,genotoxicity evaluation,[3],genotoxic
c1ccc2c(c1)-c1cccc3cccc-2c13 [Fluoranthene],Toxic (pri),[1],−
same,concentration at which S/R > 2 (recN2 − 4),[2]; Salmonella typhimurium,3.1 ppm
same,concentration at which S/R's of rec/pri >1.5 MAX,[3]; Salmonella typhimurium,3.1 ppm
same,concentration at which S/R's of rec/pri >1.5 MEAN,[3]; Salmonella typhimurium,3.1 ppm
O=C1OCCN1/N=C/c1ccc([N+](=O)[O-])o1 [Furazolidone],concentration at which S/R's of rec/pri >1.5 MAX,[3]; Salmonella typhimurium,0.5 ppb
COc1ccc2nc3cc(Cl)ccc3c(NCCCNCCCl)c2c1 [ICR 191 Acridine],Toxic (pri),[1],−
same,concentration at which S/R > 2 (recN2 − 4),[2],0.62 ppm
same,concentration at which S/R's of rec/pri >1.5 MAX,[3],1.25 ppm
same,concentration at which S/R's of rec/pri >1.5 MEAN,[3],0.31 ppm
CO[C@@]12[C@H](COC(N)=O)C3=C(C(=O)C(C)=C(N)C3=O)N1C[C@@H]1N[C@@H]12 [MMC],concentration at which S/R's of rec/pri >1.5 MEAN,[3]; [7],15.6 ppb
COS(C)(=O)=O [MMS],concentration at which S/R > 2 (recN2 − 4),[2]; [5],16 ppm and 8 ppm
same,concentration at which S/R's of rec/pri >1.5 MAX,[3]; [6],8 ppm
same,concentration at which S/R's of rec/pri >1.5 MEAN,[3]; [7],8 ppm
CCN(CC)N=O [N-Nitrosodiethylamine],concentration at which S/R > 2 (recN2 − 4),[2]; S9-mix +25 μl/ml,120 ppm
same,concentration at which S/R's of rec/pri >1.5 MAX,[3]; S9-mix +25 μl/ml,120 ppm
same,concentration at which S/R's of rec/pri >1.5 MEAN,[3]; S9-mix +25 μl/ml,240 ppm
CCn1cc(C(=O)O)c(=O)c2ccc(C)nc21 [Nalidixic acid],Toxic (pri),[1]; [8],+
same,concentration at which S/R > 2 (recN2 − 4),[2]; [5],0.16 ppm
same,concentration at which S/R's of rec/pri >1.5 MAX,[3]; [6],0.16 ppm
same,concentration at which S/R's of rec/pri >1.5 MEAN,[3]; [7],0.16 ppm
O=C(N/N=C/c1ccc([N+](=O)[O-])o1)c1ccc(O)cc1 [Nifuroxazide],toxicity evaluation,"[1]; light production, without S9mix",dose-dependent decrease in light production indicating toxicity
same,doses not toxic (S/N curves for the pr1 strain),"[1]; pr1 strain, FIG. 4",up to 0.16 ppm
same,Toxic (pri),[1]; [8],+
same,effect at higher doses,[3],toxicity combined with genotoxicity
c1ccc2c(c1)ccc1ccccc12 [Phenanthrene],Toxic (pri),"[1]; S9-mix +100 μl/ml, within the dose-range tested",+
same,concentration at which S/R > 2 (recN2 − 4),[2]; S9-mix +100 μl/ml,6.2 ppm
same,concentration at which S/R's of rec/pri >1.5 MAX,[3]; S9-mix +100 μl/ml,6.2 ppm
same,concentration at which S/R's of rec/pri >1.5 MEAN,[3]; S9-mix +100 μl/ml,6.2 ppm
"[N-]=[N+]=[N-] [Sodium azide (NaN3), Sodium azide]",Toxic (pri),[1],+
same,S/N values in the pr1 strain,[1]; Salmonella typhimurium,greater than 2
same,"S/N, indications of toxicity obtained with time",[1]; Salmonella typhimurium,< 0.8
same,S/N values in the recN2-4 strain,[2]; Salmonella typhimurium,greater than 2
same,score in the SOS chromotest,SOS signal,negative
same,"response in the VITOTOX test with the recN2-4 strain alone, previously reported",[4],positive
same,genotoxicity evaluation,[3],non-genotoxic
Nc1cccc2ccccc12 [a-Naphtylamine],concentration at which S/R's of rec/pri >1.5 MAX,[3],2.5 ppm
same,concentration at which S/R's of rec/pri >1.5 MEAN,[3],2.5 ppm
Coumermycine A1,Toxic (pri),[1],+
